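The compound was tested at five concentrations on cells cultured in 96-well plates, with a 48-hour exposure period. Here, GI50 denotes the concentration required for 50% inhibition of growth.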 Active and inactive are the calls of the source. Cut-off read from the data, not from the text of the source: active = GI50 up to about 1.1 µM and inactive = higher.
Assays:
Assay in all cases: NCI-60 cell line screen, 48 h
[1] = tested on: RXF 393
[2] = tested on: SW-620
[3] = tested on: UACC-62
[4] = tested on: OVCAR-4
[5] = tested on: KM12
[6] = tested on: RPMI-8226
[7] = tested on: TK-10
[8] = tested on: SK-MEL-5
[9] = tested on: K562
[10] = tested on: NCI/ADR-RES
[11] = tested on: MOLT-4
[12] = tested on: NCI-H522
[13] = tested on: MDA-MB-435
[14] = tested on: HCC 2998
[15] = tested on: HT-29
[16] = tested on: UO-31
[17] = tested on: HCT-116
[18] = tested on: NCI-H460
[19] = tested on: BT-549

**Q.** What does the source list for `COc1cccc2c1[C@H](OC)[C@]13O[C@@]1(C2=O)[C@H](O)[C@H](C)[C@@](O)(C(=O)[C@@H]1O[C@H]1C)[C@@H]3O`?
**A.** GI50 [1]: 0.245 µM (active); GI50 [2]: 0.21 µM (active); GI50 [3]: 0.298 µM (active); GI50 [4]: 0.208 µM (active); GI50 [5]: 0.318 µM (active); GI50 [6]: 0.172 µM (active); GI50 [7]: 0.318 µM (active); GI50 [8]: 0.172 µM (active); GI50 [9]: 0.259 µM (active); GI50 [10]: 0.337 µM (active); GI50 [11]: 0.299 µM (active); GI50 [12]: 0.185 µM (active); GI50 [13]: 0.214 µM (active)

**Q.** Which results are given for `CC1=CC(=O)C(C(O)(C(F)(F)F)C(F)(F)F)C(C)(C)C1` (stereo not given)?
**A.** GI50 [1]: > 10 µM (inactive); GI50 [2]: > 10 µM (inactive); GI50 [3]: > 10 µM (inactive); GI50 [4]: > 10 µM (inactive); GI50 [14]: > 10 µM (inactive); GI50 [5]: > 10 µM (inactive); GI50 [15]: > 10 µM (inactive); GI50 [16]: > 10 µM (inactive); GI50 [6]: > 10 µM (inactive); GI50 [7]: > 10 µM (inactive); GI50 [8]: > 10 µM (inactive); GI50 [9]: > 10 µM (inactive); GI50 [17]: > 10 µM (inactive); GI50 [18]: > 10 µM (inactive); GI50 [10]: > 10 µM (inactive); GI50 [11]: > 10 µM (inactive); GI50 [12]: > 10 µM (inactive); GI50 [13]: > 10 µM (inactive)

**Q.** For `OCC(O)C(OC1OC(CO)C(O)C(O)C1O)c1nn(-c2ccccc2)c2nc3cc(Cl)c(Cl)cc3cc12` (stereo not given), which GI50 [1] is on record?
**A.** > 100 µM (inactive)

**Q.** What about the GI50 [3] of the same compound?
**A.** > 100 µM (inactive)

**Q.** What about the GI50 [4] of the same compound?
**A.** > 100 µM (inactive)

**Q.** And the GI50 [14]?
**A.** > 100 µM (inactive)

**Q.** And the GI50 [5]?
**A.** 45 µM (inactive)

**Q.** And the GI50 [15]?
**A.** > 100 µM (inactive)

**Q.** And the GI50 [16]?
**A.** > 100 µM (inactive)

**Q.** And the GI50 [6]?
**A.** > 100 µM (inactive)

**Q.** What about the GI50 [7] of the same compound?
**A.** > 100 µM (inactive)

**Q.** And the GI50 [9]?
**A.** > 100 µM (inactive)

**Q.** And the GI50 [17]?
**A.** > 100 µM (inactive)

**Q.** What about the GI50 [18] of the same compound?
**A.** > 100 µM (inactive)

**Q.** And the GI50 [11]?
**A.** > 100 µM (inactive)

**Q.** What about the GI50 [12] of the same compound?
**A.** 63 µM (inactive)

**Q.** With `COC(=O)CC[N+]1([O-])CC1` as the compound, how does the GI50 [1] read?
**A.** > 100 µM (inactive)

**Q.** What about the GI50 [2] of the same compound?
**A.** > 100 µM (inactive)

**Q.** What about the GI50 [3] of the same compound?
**A.** > 100 µM (inactive)

**Q.** And the GI50 [4]?
**A.** > 100 µM (inactive)

**Q.** What about the GI50 [14] of the same compound?
**A.** > 100 µM (inactive)

**Q.** And the GI50 [5]?
**A.** > 100 µM (inactive)

**Q.** What about the GI50 [15] of the same compound?
**A.** > 100 µM (inactive)

**Q.** What about the GI50 [16] of the same compound?
**A.** > 100 µM (inactive)

**Q.** And the GI50 [6]?
**A.** > 100 µM (inactive)

**Q.** What about the GI50 [7] of the same compound?
**A.** > 100 µM (inactive)

**Q.** What about the GI50 [8] of the same compound?
**A.** > 100 µM (inactive)

**Q.** What about the GI50 [17] of the same compound?
**A.** > 100 µM (inactive)

**Q.** What about the GI50 [18] of the same compound?
**A.** > 100 µM (inactive)

**Q.** What about the GI50 [10] of the same compound?
**A.** > 100 µM (inactive)

**Q.** What about the GI50 [11] of the same compound?
**A.** > 100 µM (inactive)

**Q.** And the GI50 [13]?
**A.** > 100 µM (inactive)

**Q.** Which results are given for `CC1(C)C(CC(=O)O)CCCC1CC(=O)O` (stereo not given)?
**A.** GI50 [1]: > 100 µM (inactive); GI50 [2]: > 100 µM (inactive); GI50 [3]: > 100 µM (inactive); GI50 [4]: > 100 µM (inactive); GI50 [5]: > 100 µM (inactive); GI50 [15]: > 100 µM (inactive); GI50 [16]: > 100 µM (inactive); GI50 [6]: > 100 µM (inactive); GI50 [7]: > 100 µM (inactive); GI50 [8]: > 100 µM (inactive); GI50 [19]: > 100 µM (inactive); GI50 [9]: > 100 µM (inactive); GI50 [17]: > 100 µM (inactive); GI50 [10]: > 100 µM (inactive); GI50 [11]: > 100 µM (inactive); GI50 [13]: > 100 µM (inactive)

**Q.** How did the GI50 [1] turn out when `OC(Cc1cnnc2ccccc12)C(Cl)(Cl)Cl` (stereo not given) was run?
**A.** > 10 µM (inactive)

**Q.** And the GI50 [2]?
**A.** > 10 µM (inactive)

**Q.** What about the GI50 [3] of the same compound?
**A.** > 10 µM (inactive)

**Q.** What about the GI50 [4] of the same compound?
**A.** > 10 µM (inactive)

**Q.** And the GI50 [14]?
**A.** > 10 µM (inactive)

**Q.** And the GI50 [5]?
**A.** > 10 µM (inactive)

**Q.** And the GI50 [15]?
**A.** > 10 µM (inactive)

**Q.** And the GI50 [16]?
**A.** > 10 µM (inactive)

**Q.** What about the GI50 [6] of the same compound?
**A.** > 10 µM (inactive)

**Q.** What about the GI50 [7] of the same compound?
**A.** > 10 µM (inactive)

**Q.** What about the GI50 [8] of the same compound?
**A.** > 10 µM (inactive)

**Q.** What about the GI50 [9] of the same compound?
**A.** > 10 µM (inactive)

**Q.** And the GI50 [17]?
**A.** > 10 µM (inactive)

**Q.** What about the GI50 [18] of the same compound?
**A.** > 10 µM (inactive)

**Q.** What about the GI50 [10] of the same compound?
**A.** > 10 µM (inactive)

**Q.** And the GI50 [11]?
**A.** > 10 µM (inactive)

**Q.** What about the GI50 [12] of the same compound?
**A.** > 10 µM (inactive)

**Q.** And the GI50 [13]?
**A.** > 10 µM (inactive)

**Q.** Which results are given for `CCN1CCN(c2nc3ccccc3nc2C(=O)c2ccc(OC)cc2)CC1`?
**A.** GI50 [1]: 12.4 µM (inactive); GI50 [2]: 30.3 µM (inactive); GI50 [3]: 20.6 µM (inactive); GI50 [4]: 57.5 µM (inactive); GI50 [14]: > 100 µM (inactive); GI50 [5]: 24.8 µM (inactive); GI50 [15]: 23.9 µM (inactive); GI50 [16]: 19.7 µM (inactive); GI50 [6]: 7.19 µM (inactive); GI50 [7]: 22.6 µM (inactive); GI50 [8]: 37.2 µM (inactive); GI50 [9]: 43.9 µM (inactive); GI50 [17]: 6.07 µM (inactive); GI50 [18]: 21.5 µM (inactive); GI50 [10]: 45.1 µM (inactive); GI50 [11]: 28.8 µM (inactive); GI50 [12]: 53.6 µM (inactive); GI50 [13]: 44.3 µM (inactive)

**Q.** How did the GI50 [2] turn out when `N#Cc1ccccc1NC(=O)/C(=N\N)C(C(=O)c1ccncc1)C1OC(=O)c2ccccc21` (stereo not given) was run?
**A.** > 100 µM (inactive)

**Q.** What about the GI50 [3] of the same compound?
**A.** > 100 µM (inactive)

**Q.** And the GI50 [4]?
**A.** > 100 µM (inactive)

**Q.** What about the GI50 [14] of the same compound?
**A.** > 100 µM (inactive)

**Q.** And the GI50 [5]?
**A.** > 100 µM (inactive)

**Q.** And the GI50 [15]?
**A.** > 100 µM (inactive)

**Q.** What about the GI50 [16] of the same compound?
**A.** > 100 µM (inactive)

**Q.** What about the GI50 [6] of the same compound?
**A.** > 100 µM (inactive)

**Q.** And the GI50 [7]?
**A.** > 100 µM (inactive)

**Q.** What about the GI50 [8] of the same compound?
**A.** > 100 µM (inactive)

**Q.** And the GI50 [9]?
**A.** > 100 µM (inactive)

**Q.** And the GI50 [17]?
**A.** > 100 µM (inactive)

**Q.** And the GI50 [18]?
**A.** > 100 µM (inactive)

**Q.** And the GI50 [11]?
**A.** > 100 µM (inactive)

**Q.** What about the GI50 [12] of the same compound?
**A.** > 100 µM (inactive)

**Q.** With `CCOC(=O)N1CCC2(CC1)C[C@](Sc1ccccc1)(C(C)=O)[C@H](C)O2` as the compound, how does the GI50 [1] read?
**A.** > 100 µM (inactive)

**Q.** What about the GI50 [2] of the same compound?
**A.** > 100 µM (inactive)

**Q.** And the GI50 [3]?
**A.** > 100 µM (inactive)

**Q.** And the GI50 [4]?
**A.** > 100 µM (inactive)

**Q.** And the GI50 [14]?
**A.** > 100 µM (inactive)

**Q.** What about the GI50 [5] of the same compound?
**A.** > 100 µM (inactive)

**Q.** And the GI50 [15]?
**A.** > 100 µM (inactive)

**Q.** And the GI50 [16]?
**A.** > 100 µM (inactive)

**Q.** What about the GI50 [6] of the same compound?
**A.** > 100 µM (inactive)

**Q.** What about the GI50 [7] of the same compound?
**A.** > 100 µM (inactive)

**Q.** And the GI50 [8]?
**A.** > 100 µM (inactive)

**Q.** What about the GI50 [9] of the same compound?
**A.** > 100 µM (inactive)

**Q.** What about the GI50 [18] of the same compound?
**A.** > 100 µM (inactive)

**Q.** And the GI50 [10]?
**A.** > 100 µM (inactive)

**Q.** And the GI50 [11]?
**A.** > 100 µM (inactive)

**Q.** What about the GI50 [12] of the same compound?
**A.** > 100 µM (inactive)

**Q.** What about the GI50 [13] of the same compound?
**A.** > 100 µM (inactive)
